Test results published in PubChem BioAssay (NCI).
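GI50 is the concentration that inhibits growth by half. The concentration for full growth arrest is given as TGI.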

How the values were obtained:
Test in all cases: NCI-60 cell line screen, 384-well format
COLO 205 colon = test system: COLO 205 colon
SNB-19 CNS = test system: SNB-19 CNS
PC-3 prostate = test system: PC-3 prostate
MDA-MB-231 breast = test system: MDA-MB-231 breast
SR leukemia = test system: SR leukemia
CAKI-1 renal = test system: CAKI-1 renal
SN12C renal = test system: SN12C renal
SK-MEL-5 melanoma = test system: SK-MEL-5 melanoma
SK-OV-3 ovarian = test system: SK-OV-3 ovarian
RPMI-8226 leukemia = test system: RPMI-8226 leukemia
UO-31 renal = test system: UO-31 renal
NCI-H226 lung = test system: NCI-H226 lung
NCI/ADR-RES ovarian = test system: NCI/ADR-RES ovarian
OVCAR-4 ovarian = test system: OVCAR-4 ovarian
CCRF-CEM leukemia = test system: CCRF-CEM leukemia
LOX IMVI melanoma = test system: LOX IMVI melanoma
TK-10 renal = test system: TK-10 renal
RXF 393 renal = test system: RXF 393 renal
OVCAR-8 ovarian = test system: OVCAR-8 ovarian
HS 578T breast = test system: HS 578T breast
NCI-H23 lung = test system: NCI-H23 lung
EKVX NSCLC = test system: EKVX NSCLC
SK-MEL-2 melanoma = test system: SK-MEL-2 melanoma
ACHN renal = test system: ACHN renal
UACC-257 melanoma = test system: UACC-257 melanoma
SK-MEL-28 melanoma = test system: SK-MEL-28 melanoma
MDA-MB-468 breast = test system: MDA-MB-468 breast
T-47D breast = test system: T-47D breast
A498 renal = test system: A498 renal
U251 glioblastoma = test system: U251 glioblastoma
NCI-H522 lung = test system: NCI-H522 lung
K-562 leukemia = test system: K-562 leukemia
MOLT-4 leukemia = test system: MOLT-4 leukemia
HOP-62 NSCLC = test system: HOP-62 NSCLC
SF-268 CNS = test system: SF-268 CNS
NCI-H322M lung = test system: NCI-H322M lung
HCT-116 colon = test system: HCT-116 colon
SW-620 colon = test system: SW-620 colon
M14 melanoma = test system: M14 melanoma
DU-145 prostate = test system: DU-145 prostate
SF-539 CNS = test system: SF-539 CNS
HOP-92 NSCLC = test system: HOP-92 NSCLC
HCC-2998 colon = test system: HCC-2998 colon
SNB-75 CNS = test system: SNB-75 CNS
UACC-62 melanoma = test system: UACC-62 melanoma
HCT-15 colon = test system: HCT-15 colon
KM12 colon = test system: KM12 colon
MDA-MB-435 melanoma = test system: MDA-MB-435 melanoma
HL-60(TB) leukemia = test system: HL-60(TB) leukemia
SF-295 CNS = test system: SF-295 CNS
MALME-3M melanoma = test system: MALME-3M melanoma
786-0 renal = test system: 786-0 renal
OVCAR-3 ovarian = test system: OVCAR-3 ovarian
BT-549 breast = test system: BT-549 breast
HT29 colon = test system: HT29 colon
IGROV1 ovarian = test system: IGROV1 ovarian
A549 NSCLC = test system: A549 NSCLC
OVCAR-5 ovarian = test system: OVCAR-5 ovarian
NCI-H460 NSCLC = test system: NCI-H460 NSCLC

In the case of COc1cc2c(c(OC)n1)[C@]1(O)[C@H](O)[C@H](CN(C)C)[C@@H](c3ccccc3)[C@]1(c1ccc(C#N)cc1)O2, the GI50 (COLO 205 colon) is reported as < 10 nM, the TGI (COLO 205 colon) is reported as 120 nM and the GI50 (SNB-19 CNS) is reported as 12.4 nM. For the same compound, the TGI (SNB-19 CNS) was 119 nM, the GI50 (PC-3 prostate) was < 10 nM and the TGI (PC-3 prostate) was 2260 nM. For the same compound, the GI50 (MDA-MB-231 breast) was 14.6 nM, the TGI (MDA-MB-231 breast) was 94.8 nM and the GI50 (SR leukemia) was 11.7 nM. The TGI (SR leukemia) was 32.8 nM, the GI50 (CAKI-1 renal) was < 10 nM and the TGI (CAKI-1 renal) was 41 nM. The GI50 (SN12C renal) was < 10 nM, the TGI (SN12C renal) was 54.6 nM and the GI50 (SK-MEL-5 melanoma) was < 10 nM. The TGI (SK-MEL-5 melanoma) was 41.4 nM, the GI50 (SK-OV-3 ovarian) was < 10 nM and the TGI (SK-OV-3 ovarian) was 1310 nM. The GI50 (RPMI-8226 leukemia) was < 10 nM, the TGI (RPMI-8226 leukemia) was < 10 nM and the GI50 (UO-31 renal) was 21.3 nM. For the same compound, the TGI (UO-31 renal) was 91.6 nM, the GI50 (NCI-H226 lung) was < 10 nM and the TGI (NCI-H226 lung) was 57.5 nM. The GI50 (NCI/ADR-RES ovarian) was 138 nM, the TGI (NCI/ADR-RES ovarian) was 3270 nM and the GI50 (OVCAR-4 ovarian) was < 10 nM. For the same compound, the TGI (OVCAR-4 ovarian) was 43.4 nM, the GI50 (CCRF-CEM leukemia) was < 10 nM and the TGI (CCRF-CEM leukemia) was 17.8 nM. The GI50 (LOX IMVI melanoma) was < 10 nM, the TGI (LOX IMVI melanoma) was 20.5 nM and the GI50 (TK-10 renal) was 13.7 nM. For the same compound, the TGI (TK-10 renal) was 46.4 nM, the GI50 (RXF 393 renal) was < 10 nM and the TGI (RXF 393 renal) was 21.8 nM. The GI50 (OVCAR-8 ovarian) was 20.8 nM, the TGI (OVCAR-8 ovarian) was 10700 nM and the GI50 (HS 578T breast) was < 10 nM. For the same compound, the TGI (HS 578T breast) was 40.6 nM, the GI50 (NCI-H23 lung) was < 10 nM and the TGI (NCI-H23 lung) was 41.2 nM. The GI50 (EKVX NSCLC) was < 10 nM, the TGI (EKVX NSCLC) was 46.3 nM and the GI50 (SK-MEL-2 melanoma) was < 10 nM. The TGI (SK-MEL-2 melanoma) was 41.3 nM, the GI50 (ACHN renal) was 10.2 nM and the TGI (ACHN renal) was 48.3 nM. It also gave a GI50 (UACC-257 melanoma) of 25.3 nM, a TGI (UACC-257 melanoma) of 420 nM and a GI50 (SK-MEL-28 melanoma) of 19.6 nM. For the same compound, the TGI (SK-MEL-28 melanoma) was 67 nM, the GI50 (MDA-MB-468 breast) was < 10 nM and the TGI (MDA-MB-468 breast) was 23.1 nM. For the same compound, the GI50 (T-47D breast) was < 10 nM, the TGI (T-47D breast) was 53.3 nM and the GI50 (A498 renal) was < 10 nM. It also gave a TGI (A498 renal) of 266 nM, a GI50 (U251 glioblastoma) of 12.6 nM and a TGI (U251 glioblastoma) of 209 nM. The GI50 (NCI-H522 lung) was < 10 nM, the TGI (NCI-H522 lung) was 33.7 nM and the GI50 (K-562 leukemia) was < 10 nM. For the same compound, the TGI (K-562 leukemia) was 10700 nM, the GI50 (MOLT-4 leukemia) was < 10 nM and the TGI (MOLT-4 leukemia) was < 10 nM. The GI50 (HOP-62 NSCLC) was < 10 nM, the TGI (HOP-62 NSCLC) was 48.3 nM and the GI50 (SF-268 CNS) was 15.7 nM. It also gave a TGI (SF-268 CNS) of 175 nM, a GI50 (NCI-H322M lung) of 13.9 nM and a TGI (NCI-H322M lung) of 55.7 nM. For the same compound, the GI50 (HCT-116 colon) was < 10 nM, the TGI (HCT-116 colon) was 26 nM and the GI50 (SW-620 colon) was < 10 nM. For the same compound, the TGI (SW-620 colon) was 10000 nM, the GI50 (M14 melanoma) was < 10 nM and the TGI (M14 melanoma) was 38.2 nM. For the same compound, the GI50 (DU-145 prostate) was < 10 nM, the TGI (DU-145 prostate) was 48 nM and the GI50 (SF-539 CNS) was < 10 nM. For the same compound, the TGI (SF-539 CNS) was 20.1 nM, the GI50 (HOP-92 NSCLC) was 19.5 nM and the TGI (HOP-92 NSCLC) was 78.7 nM. For the same compound, the GI50 (HCC-2998 colon) was < 10 nM, the TGI (HCC-2998 colon) was 28.5 nM and the GI50 (SNB-75 CNS) was 16 nM. It also gave a TGI (SNB-75 CNS) of 360 nM, a GI50 (UACC-62 melanoma) of 11.9 nM and a TGI (UACC-62 melanoma) of 57.5 nM. The GI50 (HCT-15 colon) was 13.1 nM, the TGI (HCT-15 colon) was 99.3 nM and the GI50 (KM12 colon) was < 10 nM. For the same compound, the TGI (KM12 colon) was 72.2 nM, the GI50 (MDA-MB-435 melanoma) was < 10 nM and the TGI (MDA-MB-435 melanoma) was 583 nM. The GI50 (HL-60(TB) leukemia) was < 10 nM, the TGI (HL-60(TB) leukemia) was < 10 nM and the GI50 (SF-295 CNS) was 25.9 nM. The TGI (SF-295 CNS) was 81.9 nM, the GI50 (MALME-3M melanoma) was < 10 nM and the TGI (MALME-3M melanoma) was 61.1 nM. The GI50 ([…]-0 renal) was 18.6 nM, the TGI (786-0 renal) was 77.6 nM and the GI50 (OVCAR-3 ovarian) was < 10 nM. For the same compound, the TGI (OVCAR-3 ovarian) was 28.2 nM, the GI50 (BT-549 breast) was 23.7 nM and the TGI (BT-549 breast) was 95.7 nM. The GI50 (HT29 colon) was 22.2 nM, the TGI (HT29 colon) was 15600 nM and the GI50 (IGROV1 ovarian) was < 10 nM. For the same compound, the TGI (IGROV1 ovarian) was 13900 nM, the GI50 (A549 NSCLC) was 12 nM and the TGI (A549 NSCLC) was 16000 nM. The GI50 (OVCAR-5 ovarian) was 11 nM, the TGI (OVCAR-5 ovarian) was 58 nM and the GI50 (NCI-H460 NSCLC) was < 10 nM. It also gave a TGI (NCI-H460 NSCLC) of 23.3 nM.
